Source: patent US10344019B2 (priority 2010, dated 2019)
Like-named read-outs stand apart in the source and are kept apart here.

Columns and labels:
Type in all cases: cell-based
[1] = tested on: HCV 1a RLuc cells (dicistronic genotype 1a H77 replicon, RLuc reporter); assay: microbe, parasite or virus in culture; settings: Hepatitis C virus, read-out: 1a
Outline: (§1)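 Replicons used: genotype 1b Con1, 1a H77, 2a JFH-1, and a 2a JFH-1 chimera with J6-strain NS5A (M31 present), all dicistronic.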

[2] = tested on: HCV 4a Rluc cells (NS5A chimeric genotype 1b Con1 replicon with genotype 4a NS5A gene); assay: microbe, parasite or virus in culture; settings: Hepatitis C virus, read-out: 4a
Outline: (§2)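 Replicon cells stably carrying the listed RLuc-encoding dicistronic replicons were seeded and treated with DMSO serial dilutions of compound (10 mM stocks) diluted into culture medium. After 72 h, cells were lysed and Renilla luciferase activity measured. EC50 was derived by non-linear regression.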

[3] = tested on: HCV 2b Rluc cells (NS5A chimeric genotype 2a JFH-1 replicon with genotype 2b MD2b-1 NS5A gene, M31 present); assay: microbe, parasite or virus in culture; settings: Hepatitis C virus, read-out: 2b
Outline: as §2

[4] = tested on: HCV 3a RLuc cells (NS5A chimeric genotype 1b Con1 replicon with consensus genotype 3a NS5A gene); assay: microbe, parasite or virus in culture; settings: Hepatitis C virus
Outline: as §2

[5] = tested on: HCV 1b RLuc cells (dicistronic genotype 1b Con1 replicon, RLuc reporter); assay: microbe, parasite or virus in culture; settings: Hepatitis C virus, read-out: 1b (nM)
Outline: as §1

[6] = tested on: HCV 2a JFH-1 Rluc cells (dicistronic genotype 2a JFH-1 replicon, RLuc reporter); assay: microbe, parasite or virus in culture; settings: Hepatitis C virus, read-out: 2a JFH
Outline: as §1

[7] = tested on: HCV 2a Rluc cells (NS5A chimeric genotype 2a JFH-1 replicon with genotype 2a J6 strain NS5A gene, M31 present); assay: HCV replicon reporter assay, genotype 2a J6 (M31 present); settings: Hepatitis C virus, read-out: 2a J6
Outline: as §1

[8] = read-out: 3a, genotype 3a replicon

COC[C@H]1C[C@@H](c2ncc(-c3ccc(-c4ccc5c(ccc6nc([C@@H]7CCCN7C(=O)[C@@H](NC(=O)OC)C(C)C)[nH]c65)c4)cc3)[nH]2)N(C(=O)[C@H](NC(=O)C2CC2)c2ccccc2)C1 [Example 456]
EC50 ([1]; genotype 1a replicon): 0.001 to 0.999 nM | EC50 [2]: 0.001 to 0.99 nM | EC50 [3]: 0.001 to 0.999 nM | EC50 [4, 8]: 0.001 to 0.99 nM | EC50 [5]: 0.04 nM | EC50 ([6]; genotype 2a JFH-1 replicon): 0.001 to 0.999 nM | EC50 [7]: 0.001 to 0.999 nM

COC(=O)N[C@H](C(=O)N1[C@@H]2CC[C@@H](C2)[C@H]1c1nc2ccc3cc(-c4ccc5c(ccc6nc([C@@H]7CCCN7C(=O)[C@H](NC(=O)OC)c7ccccc7)[nH]c65)c4)ccc3c2[nH]1)C(C)C [Example 314]
EC50 ([1]; genotype 1a replicon): 0.001 to 0.999 nM | EC50 [2]: 0.001 to 0.99 nM | EC50 [3]: 0.001 to 0.999 nM | EC50 [4, 8]: 0.001 to 0.99 nM | EC50 [5]: 0.026 nM | EC50 ([6]; genotype 2a JFH-1 replicon): 0.001 to 0.999 nM | EC50 [7]: 0.001 to 0.999 nM

COC(=O)N[C@H](C(=O)N1CCC[C@H]1c1ncc(-c2cc3c4c(c2)OCc2cc(-c5cnc([C@@H]6CCCN6C(=O)[C@H](NC(=O)OC)c6ccccc6)[nH]5)cc(c2-4)OC3)[nH]1)C1CCOCC1 [Example 364]
EC50 ([1]; genotype 1a replicon): 0.001 to 0.999 nM | EC50 [2]: 0.001 to 0.99 nM | EC50 [3]: 0.001 to 0.999 nM | EC50 [4, 8]: 0.001 to 0.99 nM | EC50 [5]: 0.335 nM | EC50 ([6]; genotype 2a JFH-1 replicon): 0.001 to 0.999 nM | EC50 [7]: 0.001 to 0.999 nM

COC[C@H]1C[C@@H](c2ncc(-c3ccc(-c4ccc5c(ccc6nc([C@@H]7C[C@H](COC)CN7C(=O)[C@@H](NC(=O)OC)C(C)C)[nH]c65)c4)cc3)[nH]2)N(C(=O)[C@@H](NC(=O)OC)C(C)C)C1 [Example 440]
EC50 ([1]; genotype 1a replicon): 0.001 to 0.999 nM | EC50 [2]: 0.001 to 0.99 nM | EC50 [3]: 1 to 44 nM | EC50 [4, 8]: 1 to 4.99 nM | EC50 [5]: 0.048 nM | EC50 ([6]; genotype 2a JFH-1 replicon): 0.001 to 0.999 nM | EC50 [7]: 0.001 to 0.999 nM

COC(=O)N[C@H](C(=O)N1[C@@H]2CC[C@@H](C2)[C@H]1c1nc2ccc3cc(-c4ccc5c(ccc6nc([C@@H]7CCCN7C(=O)[C@@H](NC(=O)OC)C7CCOCC7)[nH]c65)c4)ccc3c2[nH]1)C(C)C [Example 298]
EC50 ([1]; genotype 1a replicon): 0.001 to 0.999 nM | EC50 [2]: 0.001 to 0.99 nM | EC50 [3]: 1 to 44 nM | EC50 [4, 8]: 0.001 to 0.99 nM | EC50 [5]: 0.077 nM | EC50 ([6]; genotype 2a JFH-1 replicon): 0.001 to 0.999 nM | EC50 [7]: 0.001 to 0.999 nM

COC(=O)N[C@H](C(=O)N1[C@@H]2CC[C@@H](C2)[C@H]1c1ncc(-c2ccc(-c3ccc4c(ccc5nc([C@@H]6C[C@H]7C[C@H]7N6C(=O)[C@H](NC(=O)OC)c6ccccc6)[nH]c54)c3)cc2)[nH]1)C(C)C [Example 379]
EC50 ([1]; genotype 1a replicon): 0.001 to 0.999 nM | EC50 [2]: 0.001 to 0.99 nM | EC50 [3]: > 44 nM | EC50 [4, 8]: 0.001 to 0.99 nM | EC50 [5]: 0.009 nM | EC50 ([6]; genotype 2a JFH-1 replicon): 0.001 to 0.999 nM | EC50 [7]: 0.001 to 0.999 nM

COC[C@H]1C[C@@H](c2ncc(-c3ccc(-c4ccc5c(ccc6nc([C@@H]7CCCN7C(=O)[C@@H](NC(=O)OC)C(C)C)[nH]c65)c4)cc3)[nH]2)N(C(=O)[C@@H](NC(=O)OC)C(C)C)C1 [Example 441]
EC50 ([1]; genotype 1a replicon): 0.001 to 0.999 nM | EC50 [2]: 0.001 to 0.99 nM | EC50 [3]: > 44 nM | EC50 [4, 8]: 0.001 to 0.99 nM | EC50 [5]: 0.03 nM | EC50 ([6]; genotype 2a JFH-1 replicon): 0.001 to 0.999 nM | EC50 [7]: 1 to 44 nM

COC(=O)N[C@H](C(=O)N1CCC[C@H]1c1ncc(-c2ccc3c(c2)COc2c-3ccc3cc(-c4cnc([C@@H]5CCCN5C(=O)[C@H](NC(=O)OC)c5ccccc5)[nH]4)ccc23)[nH]1)C(C)C [Example 2]
EC50 ([1]; 72 h, Table 1, genotype 1a H77 replicon, 72 hours): 0.001 to 0.999 nM | EC50 [2]: 0.001 to 0.99 nM | EC50 [3]: > 44 nM | EC50 ([4]; read-out: 3a, Table 1, genotype 3a NS5A chimeric replicon): 0.001 to 0.99 nM | EC50 ([5]; 72 h): 0.005 nM | EC50 ([6]; 72 h, Table 1, genotype 2a JFH-1 replicon, 72 hours): 0.001 to 0.999 nM | EC50 [7]: > 44 nM

COC(=O)N[C@H](C(=O)N1CCC[C@H]1c1ncc(-c2ccc3c(c2)COc2c-3ccc3c2ccc2nc([C@@H]4CCCN4C(=O)[C@@H](NC(=O)OC)C(C)C)[nH]c23)[nH]1)C(C)C [Example 400]
EC50 ([1]; genotype 1a replicon): 0.001 to 0.999 nM | EC50 [2]: 0.001 to 0.99 nM | EC50 [3]: > 44 nM | EC50 [4, 8]: 0.001 to 0.99 nM | EC50 [5]: 0.017 nM | EC50 ([6]; genotype 2a JFH-1 replicon): 0.001 to 0.999 nM | EC50 [7]: > 44 nM

COC[C@H]1C[C@@H](c2nc3ccc4cc(-c5ccc6c(ccc7nc([C@@H]8CCCN8C(=O)[C@H](NC(=O)C8CC8)c8ccccc8)[nH]c76)c5)ccc4c3[nH]2)N(C(=O)[C@@H](NC(=O)OC)C(C)C)C1 [Example 512]
EC50 ([1]; genotype 1a H77 RLuc replicon): 0.001 to 0.999 nM | EC50 [2]: 0.001 to 0.99 nM | EC50 [3]: 0.001 to 0.999 nM | EC50 ([4]; read-out: 3a, genotype 3a NS5A chimeric replicon): 0.001 to 0.99 nM | EC50 [5]: 0.035 nM | EC50 ([6]; genotype 2a JFH-1 RLuc replicon): 0.001 to 0.999 nM | EC50 [7]: 0.001 to 0.999 nM
